Experiment [1] deals with CA3-CA1 transmission in the hippocampus of APPswe/PS-1 mice. The experiment can be described thus: LTP by TBS in hippocampal CA1 slices from treated APPswe/PS-1 mice. In kind it is in vivo. As to conditions: slices from the two sets (7- and 12-month-old) of treated APPswe/PS-1 mice.
The target of experiment [2] is T1, Immunoprecipitated GSK-3β from hippocampus of wild-type mice (Mus musculus, UniProt Q9WV60).
T1 construct: the hippocampus of two month-old wild-type mice were lysed in immunoprecipitation buffer; from tissue; host or cells: hippocampus of two-month-old wild-type mice, immunoprecipitated with anti-GSK-3β antibody (Santa Cruz Biotechnology) on protein G beads
T1 sequence (Q9WV60 whole entry): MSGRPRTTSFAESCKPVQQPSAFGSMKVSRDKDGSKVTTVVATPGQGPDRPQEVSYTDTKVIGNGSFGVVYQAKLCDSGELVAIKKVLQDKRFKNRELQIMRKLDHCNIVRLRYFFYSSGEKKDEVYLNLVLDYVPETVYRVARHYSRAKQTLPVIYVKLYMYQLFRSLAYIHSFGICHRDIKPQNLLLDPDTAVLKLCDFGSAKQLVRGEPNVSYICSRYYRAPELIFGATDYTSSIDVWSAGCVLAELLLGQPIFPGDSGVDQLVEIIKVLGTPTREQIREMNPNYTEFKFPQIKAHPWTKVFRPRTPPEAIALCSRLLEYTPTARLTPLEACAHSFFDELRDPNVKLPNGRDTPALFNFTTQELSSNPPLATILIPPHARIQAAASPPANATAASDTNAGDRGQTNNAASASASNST
Put plainly: Luminometric GSK-3β activity assay. In kind it is biochemical. The procedure:
Immunoprecipitation. The immunoprecipitation was performed as previously described (Garrido et al, 2002). Briefly, the hippocampus of two month-old wild-type mice were lysed in immunoprecipitation buffer (25 mM HEPES pH 7.4, 125 mM NaCl, 25 mM NaF, 1 mM EDTA, 1 mM EGTA, 1% NP-40) including phosphatase inhibitors (1 mM NaVO3 and 200 nM okadaic acid) and the protease inhibitor cocktail described above. 200 μg of total proteins from lysate were precleared by using protein G-Sepharose beads (Santa Cruz Biotechnology) for 1 h at 4° C. and then were incubated with anti-GSK-3β antibody (Santa Cruz Biotechnology) and new protein G beads for 4 h at 4° C. The immunocomplexes were finally pelleted and washed three times with cold immunoprecipitation buffer.
GSK-3β activity assay. IC50 of ANDRO was determined by a luminometric GSK-3β activity assay. […] Briefly, ANDRO was tested at different concentrations and diluted in kinase buffer containing final concentrations of: 40 mM Tris pH 7.5; 20 mM MgCl2; 0,1 mg/ml BSA. Diluted ANDRO was added to 25 μM pGS-2 peptide substrate (Millipore, Billerica, USA), immunoprecipited GSK-3β and 10 μM ATP (Cell Signaling, Boston, USA) to a total assay volume of 50 μl. The enzymatic reaction was stopped after 10 min of incubation to room temperature by adding 50 μl Kinase Glo (Promega, Madison, USA). The luminometric signal was allowed to stabilize for 10 min and the measured with a Luminometer TURNER DESIGNS model TD-2020.
Immunoprecipitated GSK-3β from hippocampus of wild-type mice was incubated with ATP and pGS-2 peptide substrate for 5 min, then the reaction was stopped and the kinase activity was determined in a luminometer.

In experiment [3] the test system is Aβ oligomers in the hippocampus of APPswe/PS-1 mice. The experiment can be described thus: Slot blot of Aβ oligomers with A11 antibody. In kind it is in vivo.

“Also recorded” adds a separate entry of the source. Where two headings read alike, the source gives them in different places.

As for `C=C1CC[C@@H]2C(C)(CO)[C@H](O)CC[C@@]2(C)C1C/C=C1/C(=O)OC[C@H]1O` (stereo in doubt) [ANDRO, 3-(2-(Decahydro-6-hydroxy-5-(hydroxymethyl)-5,8a-dimethyl-2-methylenenaphthyl)ethylidene)dihydro-4-hydroxyfuran-2(3H)-one], in experiment [1], the LTP induction entry is on record as “recovery in the capacity to induce a LTP; also recorded: have the property to induce a LTP that is maintained for 1 h”. The IC50 in experiment [2] (different concentrations of ATP, read-out: IC50 using different concentrations of ATP) was about 5.58 µM; in experiment [2] (preincubation 10 min, 10 μM ATP, 25 μM pGS-2 peptide substrate, read-out: IC50 of GSK-3β activity) it was 5.58 µM. For the same compound, the “IC50 with increased substrate concentration” value in experiment [2] (different concentrations of the substrate) is listed as “increase in the IC50”. The “level of Aβ oligomers (A11 slot-blot)” value in experiment [3] (7 month-old APPswe/PS-1 mice) is recorded as “did not show significant changes”. In experiment [3] (FIG. 3G (old APPswe/PS-1 mice per legend)), the “levels of Aβ-oligomers (A11 slot blot)” value is listed as “did not show significant changes”.

Values taken from patent publication US20220409573A1, “Hippocampus Regeneration And Memory Recovery” (INNOBIOSCIENCE, LLC, priority 2021, published 2022).
